Patent publication US20260001875A1, “AMINOPYRIMIDINYL DERIVATIVES FOR THE TREATMENT OF PARKINSON'S DISEASE” (UNIVERSITY OF DUNDEE, priority 2022, published 2026)
Values after ≈ are worked out from the molar mass of the structure shown. “Also recorded” adds a separate entry of the source. Like-named read-outs stand apart in the source and are kept apart here.

Legend:
Rab10 pThr73 = experiment: Rab10 Thr73 dephosphorylation in PBMC; format: cell-based, human; conditions: for EC50: Homo sapiens, PBMC
Description: PBMC cells were separated from human blood following existing protocol (dx.doi.org/10.17504/protocols.io.bnhxmb7n) and pelleted by centrifugation at 1000 g for 2 min. The supernatant was discarded and the PBMC pellet was resuspended in PBS containing 2% FBS for washing. The suspension was centrifuged at 1000 g for 2 min again and the PBMC pellet was resuspended in RPMI-1640 (Gibco) media supplemented with 10% FBS. The cells were then seeded into 6-well plates and treated with testing compounds at indicated concentrations and time period. After treatment, the cells were collected into 2-ml Eppendorf tube and centrifuged at 500 g for 2 min to pellet the cells, the supernatant was discarded, and the pellet was resuspended in 1 ml PBS and centrifuged at 500 g for 2 min again. The PBMC pellet was lysed with 60 μL of lysis buffer containing 50 mM Tris-HCl, pH 7.5, 1% (v/v) Triton X-100, 1 mM EGTA, 1 mM sodium orthovanadate, 50 mM NaF, 0.1% (v/v) 2-mercaptoethanol, 10 mM 2-glycerophosphate, 5 mM sodium pyrophosphate, 0.1 μg/ml mycrocystin-LR (Enzo Life Sciences), 270 mM sucrose, 0.5 mM DIFP (Sigma, Cat #D0879) in addition to Complete EDTA-free protease inhibitor cocktail (Sigma-Aldrich Cat #11836170001). DIFP is highly toxic and must be prepared in a fume hood to a stock solution of 0.5 M in isopropanol. The lysed cells were then centrifuged at 1500 g for 15 min at 0° C. The supernatants were collected for analysis by quantitative immunoblotting. For long term storage, the supernatant was flash frozen and stored at −80° C. Protein concentrations of cell lysates were determined using Pierce™ BCA Protein Assay Kit (ThermoFisher).
Cell lysates containing a quarter of a volume of 4× NuPAGE LDS sample buffer (NP0007) supplemented with 5% β-mercaptoethanol, were heated at 95° C. for 5 minutes. 15 to 20 μg of samples were loaded onto pre-cast 4-12% Bis-Tris midi 20W or 26W gels (Thermofisher Scientific®, Cat #WG1402BOX or WG1403BOX) and resolved at 130 V for 2 hours with NuPAGE MOPS SDS running buffer (Thermofisher Scientific® Cat #NP0001-02). Proteins were electrophoretically transferred onto a 0.45 μm nitrocellulose membrane (GE Healthcare, Amersham Protran® Supported 0.45 mm NC) at 90 V for 90 min on ice in transfer buffer (48 mM Tris base and 39 mM glycine supplemented with 20% methanol). The transferred membrane was blocked with 5% (w/v) skim milk powder dissolved in tris-buffered saline with tween (TBS-T) (50 mM Tris base, 150 mM sodium chloride (NaCl), 0.1% (v/v) Tween-20) at room temperature for 1 hour. Membranes were washed three times with TBS-T and were incubated in primary antibody overnight at 4° C. Prior to secondary antibody incubation, membranes were washed three times for 15 minutes with TBS-T. The membranes were incubated with secondary antibody for 1 hour at room temperature, protected from light. Thereafter, the membranes were washed with TBS-T three times with a 15-minute incubation for each wash, and protein bands were acquired via near-infrared fluorescent detection using the Odyssey CLx imaging system and quantified using Image Studio software. Graphs were generated using Graphpad Prism version 8 software.
Monoclonal rabbit LRRK2 Ser935 (Cat #UDD2) was purified by MRC PPU Reagents and Services at the University of Dundee and was used at a final concentration of 1 μg/ml. Total LRRK2 (C-terminus) was from Antibodies Inc./Neuromab (Cat #75-253) and was diluted 1:1000. […]

VHL and LRRK2 = biological target: T1, VHL and LRRK2 (Homo sapiens, UniProt P40337+Q5S007); experiment: NanoBRET ternary complex formation assay; format: binding
T1 construct: host or cells: HEK293 (digitonin-permeabilized), with purified labelled VCB added
T1 sequence (Q5S007 whole entry, species assumed): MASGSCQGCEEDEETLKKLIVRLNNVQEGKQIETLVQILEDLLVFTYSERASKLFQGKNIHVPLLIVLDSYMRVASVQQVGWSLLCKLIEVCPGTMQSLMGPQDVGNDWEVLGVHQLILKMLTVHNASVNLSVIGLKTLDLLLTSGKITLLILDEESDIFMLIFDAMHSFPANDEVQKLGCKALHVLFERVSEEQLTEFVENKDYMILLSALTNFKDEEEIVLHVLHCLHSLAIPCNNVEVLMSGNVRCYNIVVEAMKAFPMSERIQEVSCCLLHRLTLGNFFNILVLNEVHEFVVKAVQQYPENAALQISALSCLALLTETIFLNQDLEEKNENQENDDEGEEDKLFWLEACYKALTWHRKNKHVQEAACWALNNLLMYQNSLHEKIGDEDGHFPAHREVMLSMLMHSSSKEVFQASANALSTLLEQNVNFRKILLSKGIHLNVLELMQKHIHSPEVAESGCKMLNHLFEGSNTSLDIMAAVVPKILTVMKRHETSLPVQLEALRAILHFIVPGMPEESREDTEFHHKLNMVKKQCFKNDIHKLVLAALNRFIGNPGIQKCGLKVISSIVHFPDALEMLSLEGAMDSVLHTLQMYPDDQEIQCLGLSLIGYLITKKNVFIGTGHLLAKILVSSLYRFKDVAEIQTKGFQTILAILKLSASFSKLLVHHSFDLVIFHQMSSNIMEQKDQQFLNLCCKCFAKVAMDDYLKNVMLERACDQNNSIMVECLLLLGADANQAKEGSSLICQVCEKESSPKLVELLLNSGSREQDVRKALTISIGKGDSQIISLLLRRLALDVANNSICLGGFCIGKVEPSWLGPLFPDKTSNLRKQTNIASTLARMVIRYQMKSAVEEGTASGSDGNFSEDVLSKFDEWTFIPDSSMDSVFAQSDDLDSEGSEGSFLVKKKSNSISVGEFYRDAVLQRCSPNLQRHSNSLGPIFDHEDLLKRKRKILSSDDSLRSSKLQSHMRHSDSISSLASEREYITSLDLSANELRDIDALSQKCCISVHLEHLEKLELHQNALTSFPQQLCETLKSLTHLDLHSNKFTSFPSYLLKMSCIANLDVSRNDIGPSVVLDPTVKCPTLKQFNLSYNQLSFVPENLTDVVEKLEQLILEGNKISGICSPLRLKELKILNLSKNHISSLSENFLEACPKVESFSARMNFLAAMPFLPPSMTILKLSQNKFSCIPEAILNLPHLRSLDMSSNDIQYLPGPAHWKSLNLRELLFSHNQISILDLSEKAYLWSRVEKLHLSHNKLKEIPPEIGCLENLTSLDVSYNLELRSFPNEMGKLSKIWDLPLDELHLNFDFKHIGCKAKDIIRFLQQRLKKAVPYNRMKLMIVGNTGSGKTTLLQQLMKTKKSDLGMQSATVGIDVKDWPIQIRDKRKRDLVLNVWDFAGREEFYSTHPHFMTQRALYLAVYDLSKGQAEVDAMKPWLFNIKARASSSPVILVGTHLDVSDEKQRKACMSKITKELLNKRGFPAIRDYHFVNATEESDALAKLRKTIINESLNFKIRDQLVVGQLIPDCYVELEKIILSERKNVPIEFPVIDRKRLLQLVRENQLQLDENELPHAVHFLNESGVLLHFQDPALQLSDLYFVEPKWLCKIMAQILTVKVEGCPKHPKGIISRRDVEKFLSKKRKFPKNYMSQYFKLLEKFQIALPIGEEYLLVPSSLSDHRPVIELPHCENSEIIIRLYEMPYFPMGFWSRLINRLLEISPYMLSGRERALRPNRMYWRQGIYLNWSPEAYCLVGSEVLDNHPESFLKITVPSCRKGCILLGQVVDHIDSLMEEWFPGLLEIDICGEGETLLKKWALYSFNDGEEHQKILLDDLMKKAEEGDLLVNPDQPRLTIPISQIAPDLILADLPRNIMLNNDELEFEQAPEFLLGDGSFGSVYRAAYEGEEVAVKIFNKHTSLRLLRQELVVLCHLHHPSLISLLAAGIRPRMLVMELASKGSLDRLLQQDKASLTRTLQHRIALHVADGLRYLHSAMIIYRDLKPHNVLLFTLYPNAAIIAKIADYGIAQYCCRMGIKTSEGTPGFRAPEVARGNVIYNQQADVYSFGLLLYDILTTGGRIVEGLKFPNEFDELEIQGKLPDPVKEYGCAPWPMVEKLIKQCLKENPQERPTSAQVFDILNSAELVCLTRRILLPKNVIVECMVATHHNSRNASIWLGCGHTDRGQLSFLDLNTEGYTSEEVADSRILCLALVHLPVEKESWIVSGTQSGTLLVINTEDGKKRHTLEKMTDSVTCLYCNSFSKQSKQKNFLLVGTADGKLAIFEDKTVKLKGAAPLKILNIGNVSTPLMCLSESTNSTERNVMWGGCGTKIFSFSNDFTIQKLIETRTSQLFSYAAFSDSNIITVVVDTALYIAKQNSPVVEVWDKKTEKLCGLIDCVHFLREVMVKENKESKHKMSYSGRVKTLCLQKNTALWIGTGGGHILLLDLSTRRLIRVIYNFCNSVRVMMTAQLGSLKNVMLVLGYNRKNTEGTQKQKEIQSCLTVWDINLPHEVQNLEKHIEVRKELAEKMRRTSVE
T1 sequence (P40337 54-213 limits assumed, species assumed): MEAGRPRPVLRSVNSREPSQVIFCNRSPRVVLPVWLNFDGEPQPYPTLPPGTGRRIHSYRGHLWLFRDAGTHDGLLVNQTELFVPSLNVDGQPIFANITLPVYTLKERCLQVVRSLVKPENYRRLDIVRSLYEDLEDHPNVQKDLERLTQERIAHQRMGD
T1 sequence (Q15369 17-112 partner limits assumed, species assumed): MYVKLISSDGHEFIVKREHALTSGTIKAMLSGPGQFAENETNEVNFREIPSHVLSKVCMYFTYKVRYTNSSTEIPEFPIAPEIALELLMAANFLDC
T1 sequence (Q15370 1-104 partner limits assumed, species assumed): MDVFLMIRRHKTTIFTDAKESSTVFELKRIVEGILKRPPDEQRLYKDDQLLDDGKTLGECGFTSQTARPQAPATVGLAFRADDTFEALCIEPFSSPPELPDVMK
Description: VCB was labeled with Bodipy 576/589 following protocol reported previously 76. Briefly, the VCB complex was mixed with Bodipy 576/589 NHS ester in a 20:1 molar ration and incubated at room temperature (protect from light) for 2 h in reaction buffer (0.1 M sodium phosphate, 75 mM KOAc, 2 mM DTT, pH 7.4). The reaction was quenched by diluting 10 times with reaction buffer and the unreacted dye was removed with a PD-10 MiniTrap desalting column (GE Healthcare) equilibrated with 100 mM BisTris pH 7.0, 100 mM NaCl, 1 mM DTT, pH 7. The eluted labeled protein solution was collected and concentrated with Pierce Concentrator, 3K MWCO (Thermo scientific).
Hek293 cells were transfected with LRRK2-NanoLuc vector (Promega, NV3401) for 24 h, harvested, and resuspended into OptiMEM media without phenol red (Life Technologies). The cells were then seeded into white 384-well plate (Corning3570) at a density of 6000 cells/well. […] Each well was added with NanoBRET NanoGlo Substrate (Promega, N2160) before performing the NanoBRET reading on PHERAstar (BMG LABTECH) plate reader equipped with a 450-nm bandpass filter (donor) and a 600-nm long pass filter (acceptor). […]

Solubility = format: physicochemical
[1] = Stability in mouse plasma; format: in vitro ADME; conditions: read-out: T1/2 in mouse plasma
[2] = Stability in mouse hepatocytes; format: in vitro ADME; conditions: read-out: T1/2 in mouse hepatocytes
LRRK2 pSer935 = experiment: LRRK2 Ser935 dephosphorylation in PBMC; format: cell-based, human; conditions: time course at 300 nM
Description: PBMC cells were separated from human blood following existing protocol (dx.doi.org/10.17504/protocols.io.bnhxmb7n) and pelleted by centrifugation at 1000 g for 2 min. The supernatant was discarded and the PBMC pellet was resuspended in PBS containing 2% FBS for washing. The suspension was centrifuged at 1000 g for 2 min again and the PBMC pellet was resuspended in RPMI-1640 (Gibco) media supplemented with 10% FBS. The cells were then seeded into 6-well plates and treated with testing compounds at indicated concentrations and time period. After treatment, the cells were collected into 2-ml Eppendorf tube and centrifuged at 500 g for 2 min to pellet the cells, the supernatant was discarded, and the pellet was resuspended in 1 ml PBS and centrifuged at 500 g for 2 min again. […] The supernatants were collected for analysis by quantitative immunoblotting. […] Protein concentrations of cell lysates were determined using Pierce™ BCA Protein Assay Kit (ThermoFisher).
Cell lysates containing a quarter of a volume of 4× NuPAGE LDS sample buffer (NP0007) supplemented with 5% β-mercaptoethanol, were heated at 95° C. for 5 minutes. […] Thereafter, the membranes were washed with TBS-T three times with a 15-minute incubation for each wash, and protein bands were acquired via near-infrared fluorescent detection using the Odyssey CLx imaging system and quantified using Image Studio software. […]

| EC50 (Rab10 pThr73; 4 h treatment) [nM] | SMILES | EC50 (Rab10 pThr73; 24 h treatment) [nM] | LRRK2 Ser935 and Rab10 Thr73 dephosphorylation in PBMC (in words) (Rab10 pThr73; time course at 300 nM) | ternary complex formation with VHL and LRRK2 (in words) (VHL and LRRK2) | solubility (Solubility; FeSSIF (fed state simulated intestinal fluid), fessif, Fed State Simulated Intestinal Fluid pH 5.8, read-out: Solubility in FeSSIF (pH 5.8)) [µM] | solubility (Solubility; aqueous buffer, PBS pH 7.4, read-out: Solubility in PBS (pH 7.4)) [µM] | half-life [1] [h] | half-life [2] [h] | T1/2 of LRRK2 dephosphorylation in PBMC (LRRK2 pSer935) [h] | T1/2 of Rab10 dephosphorylation in PBMC (Rab10 pThr73; time course at 300 nM) [h] |
| --- | --- | --- | --- | --- | --- | --- | --- | --- | --- | --- |
| > 3000 | CNc1nc(Nc2ccc(C(=O)N3CCN(C[C@H]4CC[C@H](CSC(C)(C)[C@H](NC(=O)C5(F)CC5)C(=O)N5C[C@@H](O)CC5C(=O)NCc5ccc(-c6scnc6C)cc5)CC4)CC3)cc2OC)ncc1Cl (stereo partly drawn) [Cis-XL01126, (2S,4S)-1-((R)-3-((((1r,4R)-4-((4-(4-((5-chloro-4-(methylamino)pyrimidin-2-yl)amino)-3-methoxybenzoyl)piperazin-1-yl)methyl)cyclohexyl)methyl)thio)-2-(1-fluorocyclopropane-1-carboxamido)-3-methylbutanoyl)-4-hydroxy-N-(4-(4-methylthiazol-5-yl)benzyl)pyrrolidine-2-carboxamide] | 705 | barely inhibits the phosphorylation; also recorded: induced little LRRK2 and Rab10 dephosphorylation | cannot form ternary complex |  |  |  |  |  |  |
|  | CNc1nc(Nc2ccc(C(=O)N3CCN(C[C@H]4CC[C@H](CSC(C)(C)[C@H](NC(=O)C5(F)CC5)C(=O)N5C[C@H](O)CC5C(=O)NCc5ccc(-c6scnc6C)cc5)CC4)CC3)cc2OC)ncc1Cl (stereo partly drawn) [XL01126, (2S,4R)-1-((R)-3-((((1R,4R)-4-((4-(4-((5-chloro-4-(methylamino)pyrimidin-2-yl)amino)-3-methoxybenzoyl)piperazin-1-yl)methyl)cyclohexyl)methyl)thio)-2-(1-fluorocyclopropane-1-carboxamido)-3-methylbutanoyl)-4-hydroxy-N-(4-(4-methylthiazol-5-yl)benzyl)pyrrolidine-2-carboxamide] | 20 |  | highest ternary complex | 26.1 (≈ 26.6 µg/mL) | 0.55 (≈ 0.561 µg/mL) | 1.8 | 5.24 | 1 | 0.38 |
